Measurements as given in ChEMBL document CHEMBL1201862, “PubChem BioAssay data set” (2004).
Active and inactive are the calls of the source.

Experiments:
[1] = target: DNA dC->dU-editing enzyme APOBEC-3A (Homo sapiens, UniProt P31941); assay: APOBEC3A DNA deaminase inhibitors, dose response, biochemical (AID 504722); type: functional
[2] = target: DNA dC->dU-editing enzyme APOBEC-3G (Homo sapiens, UniProt Q9HC16); assay: Dose Response confirmation of small molecule APOBEC3G DNA Deaminase Inhibitors via a fluorescence-based single-stranded DNA deaminase assay. [Related pubchem assays (depositor defined):AID493012, AID493028]; type: functional
Beta-lactamase [3] = target: T1, Beta-lactamase (Pseudomonas aeruginosa, UniProt Q79MP6); assay: […] counterscreen for selective VIM-2 inhibitors: dose response biochemical high throughput screening assay to identify inhibitors of IMP-1 metallo-beta-lactamase.
Beta-lactamase [4] = target: T1, Beta-lactamase; assay: IMP-1 metallo-beta-lactamase inhibitors, dose response, selectivity assay for VIM-2 inhibitor project, biochemical, epi-absorbance (AID 1920)
Beta-lactamase [5] = target: Beta-lactamase (Salmonella choleraesuis (strain SC-B67), UniProt Q5J463); assay: Epi-absorbance-based counterscreen for selective VIM-2 inhibitors: dose response biochemical high throughput screening assay to identify inhibitors of TEM-1 serine-beta-lactamase.
Mu-type opioid receptor = Mu-type opioid receptor (Homo sapiens, UniProt P35372); assay: SAR Analysis of Antagonists of the MOR Receptor using an Image-Based Assay - Set 3. [Related pubchem assays (depositor defined):AID1777, AID1785, AID1786, AID1966, AID2133, AID2136, AID2284, AID2285, AID2420]; type: functional
[6] = target: Delta-type opioid receptor (Homo sapiens, UniProt P41143); assay: SAR Analysis of Antagonists of the DOR Receptor using an Image-Based Assay - Set 3. [Related pubchem assays (depositor defined):AID1777, AID1785]; type: functional;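 note: U2OS cells expressing DOR1 and beta-arrestin GFP stimulated with 100 nM SNC80; imaging of GFP-tagged beta-arrestin moving into spots after receptor activation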
Troponin, cardiac muscle = Troponin, cardiac muscle (Homo sapiens, UniProt P19429+P45379+P63316); assay: Fluorescence-based biochemical high throughput dose response assay for activators of the calcium sensitivity of cardiac Regulated Thin Filaments (RTF). [Related pubchem assays (depositor defined):AID493008, AID493018, AID504382, AID504383]; type: protein-complex assay
Streptococcus = assay: Group A Streptococcus viability loss, dose response, counter-screen for streptokinase expression inhibitor project, luminescence, BacTiterGlo (AID 1915); type: functional, organism-based;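 note: potency for reduction of bacterial viability or growth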
[7] = target: E3 ubiquitin-protein ligase Mdm2/Protein Mdm4 (Homo sapiens, UniProt O15151+Q00987); assay: Mdm2-MdmX interaction inhibitors, dose response, luminescence detection (AID 504593); type: functional
[8] = system: Streptococcus sp. 'group A'; assay: growth inhibition of control SK(-) GAS strain, dose response, counter-screen for streptokinase expression inhibitor project, luminescence, kanamycin, BacTiterGlo, confirmation (AID 1900); type: functional, organism-based
Streptokinase A = target: T2, Streptokinase A (Streptococcus pyogenes serotype M1, UniProt P10520); assay: S. pyogenes streptokinase expression inhibitors, potency, dose response, plasminogen activation absorbance, OD405 (AID 1914); type: functional, Streptococcus pyogenes M1 GAS;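 note: secreted streptokinase activity via plasminogen activation per viability signal from cell pellet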
T2 sequence (P10520 whole entry): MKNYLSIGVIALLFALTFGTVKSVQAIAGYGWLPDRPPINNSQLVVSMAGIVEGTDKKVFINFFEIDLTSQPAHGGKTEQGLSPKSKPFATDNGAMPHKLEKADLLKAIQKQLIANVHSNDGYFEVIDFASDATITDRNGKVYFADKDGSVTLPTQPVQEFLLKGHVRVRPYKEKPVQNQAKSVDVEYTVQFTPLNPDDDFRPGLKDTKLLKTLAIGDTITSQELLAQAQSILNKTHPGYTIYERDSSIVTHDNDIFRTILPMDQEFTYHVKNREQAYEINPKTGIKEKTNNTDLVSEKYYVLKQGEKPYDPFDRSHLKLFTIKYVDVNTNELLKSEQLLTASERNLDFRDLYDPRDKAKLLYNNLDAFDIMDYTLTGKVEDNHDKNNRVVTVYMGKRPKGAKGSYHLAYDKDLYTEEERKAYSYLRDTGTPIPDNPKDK

T1 sequence (Q79MP6 whole entry): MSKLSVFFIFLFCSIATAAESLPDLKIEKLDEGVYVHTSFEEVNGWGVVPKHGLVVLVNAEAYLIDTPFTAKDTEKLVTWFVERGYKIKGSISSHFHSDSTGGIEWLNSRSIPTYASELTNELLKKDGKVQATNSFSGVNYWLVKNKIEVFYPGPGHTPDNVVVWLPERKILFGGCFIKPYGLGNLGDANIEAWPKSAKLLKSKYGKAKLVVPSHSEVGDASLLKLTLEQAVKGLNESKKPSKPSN
Chain of DNA dC->dU-editing enzyme APOBEC-3G (Q9HC16 whole entry): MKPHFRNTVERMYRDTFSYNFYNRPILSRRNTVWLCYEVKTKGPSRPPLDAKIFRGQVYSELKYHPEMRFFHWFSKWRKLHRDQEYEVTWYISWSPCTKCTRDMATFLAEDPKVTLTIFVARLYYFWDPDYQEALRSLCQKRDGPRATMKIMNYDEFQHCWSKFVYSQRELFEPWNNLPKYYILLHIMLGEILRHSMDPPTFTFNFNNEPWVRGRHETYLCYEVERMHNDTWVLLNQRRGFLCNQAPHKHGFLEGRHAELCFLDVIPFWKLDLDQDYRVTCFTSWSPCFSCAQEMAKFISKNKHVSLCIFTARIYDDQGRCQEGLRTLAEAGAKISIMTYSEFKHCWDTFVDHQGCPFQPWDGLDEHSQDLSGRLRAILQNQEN
Chain of DNA dC->dU-editing enzyme APOBEC-3A (P31941 whole entry): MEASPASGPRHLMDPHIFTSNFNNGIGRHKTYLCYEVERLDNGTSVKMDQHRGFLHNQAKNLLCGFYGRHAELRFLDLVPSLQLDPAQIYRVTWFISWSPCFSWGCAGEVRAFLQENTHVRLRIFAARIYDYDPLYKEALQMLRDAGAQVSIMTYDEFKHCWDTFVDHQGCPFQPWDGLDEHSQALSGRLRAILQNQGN
Chain of E3 ubiquitin-protein ligase Mdm2/Protein Mdm4 (Q00987 whole entry): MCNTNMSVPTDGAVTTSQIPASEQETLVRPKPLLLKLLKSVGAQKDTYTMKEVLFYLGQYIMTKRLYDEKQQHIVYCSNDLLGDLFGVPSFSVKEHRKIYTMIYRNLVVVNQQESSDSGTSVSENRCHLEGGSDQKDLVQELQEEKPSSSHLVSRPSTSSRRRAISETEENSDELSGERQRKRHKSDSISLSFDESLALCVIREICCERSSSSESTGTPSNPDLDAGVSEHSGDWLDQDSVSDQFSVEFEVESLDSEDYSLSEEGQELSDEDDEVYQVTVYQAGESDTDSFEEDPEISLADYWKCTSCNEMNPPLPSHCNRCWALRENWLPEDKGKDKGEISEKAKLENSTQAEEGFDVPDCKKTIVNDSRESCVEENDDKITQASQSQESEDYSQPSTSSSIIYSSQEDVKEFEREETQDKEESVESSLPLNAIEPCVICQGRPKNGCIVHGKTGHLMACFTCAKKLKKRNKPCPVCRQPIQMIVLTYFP
Chain of E3 ubiquitin-protein ligase Mdm2/Protein Mdm4 (O15151 whole entry): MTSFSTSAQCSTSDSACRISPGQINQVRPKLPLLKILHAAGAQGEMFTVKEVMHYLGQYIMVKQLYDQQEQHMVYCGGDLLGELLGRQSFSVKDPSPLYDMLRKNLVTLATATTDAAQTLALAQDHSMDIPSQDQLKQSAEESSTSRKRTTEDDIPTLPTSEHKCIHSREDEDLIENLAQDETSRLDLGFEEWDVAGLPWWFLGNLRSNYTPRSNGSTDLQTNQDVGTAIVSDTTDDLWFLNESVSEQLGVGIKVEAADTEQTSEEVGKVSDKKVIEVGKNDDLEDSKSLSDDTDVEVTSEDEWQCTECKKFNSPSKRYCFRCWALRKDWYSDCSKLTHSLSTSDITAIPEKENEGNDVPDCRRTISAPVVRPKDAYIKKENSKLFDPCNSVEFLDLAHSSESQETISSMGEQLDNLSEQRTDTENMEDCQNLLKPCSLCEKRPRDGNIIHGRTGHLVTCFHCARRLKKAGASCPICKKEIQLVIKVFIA
Chain of Delta-type opioid receptor (P41143 whole entry): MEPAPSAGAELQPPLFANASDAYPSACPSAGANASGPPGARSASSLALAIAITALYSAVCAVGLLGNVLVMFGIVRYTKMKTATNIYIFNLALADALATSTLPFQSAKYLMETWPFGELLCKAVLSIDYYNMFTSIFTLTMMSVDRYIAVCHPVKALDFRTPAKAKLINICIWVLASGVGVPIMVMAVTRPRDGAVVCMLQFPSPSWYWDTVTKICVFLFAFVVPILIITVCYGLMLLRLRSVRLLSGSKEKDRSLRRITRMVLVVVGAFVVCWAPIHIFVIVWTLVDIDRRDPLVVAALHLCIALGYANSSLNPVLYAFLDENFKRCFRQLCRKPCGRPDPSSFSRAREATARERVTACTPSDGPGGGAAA
Chain of Beta-lactamase (Salmonella choleraesuis (strain SC-B67), UniProt Q5J463) (Q5J463 whole entry): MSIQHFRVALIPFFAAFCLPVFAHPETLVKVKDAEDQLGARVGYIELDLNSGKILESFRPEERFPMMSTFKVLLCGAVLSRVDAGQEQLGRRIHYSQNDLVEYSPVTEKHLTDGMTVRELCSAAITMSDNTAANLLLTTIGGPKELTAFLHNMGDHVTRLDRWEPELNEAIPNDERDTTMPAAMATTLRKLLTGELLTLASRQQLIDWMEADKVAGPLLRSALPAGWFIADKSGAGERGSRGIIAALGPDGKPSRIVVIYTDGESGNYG
Chain of Mu-type opioid receptor (P35372 whole entry): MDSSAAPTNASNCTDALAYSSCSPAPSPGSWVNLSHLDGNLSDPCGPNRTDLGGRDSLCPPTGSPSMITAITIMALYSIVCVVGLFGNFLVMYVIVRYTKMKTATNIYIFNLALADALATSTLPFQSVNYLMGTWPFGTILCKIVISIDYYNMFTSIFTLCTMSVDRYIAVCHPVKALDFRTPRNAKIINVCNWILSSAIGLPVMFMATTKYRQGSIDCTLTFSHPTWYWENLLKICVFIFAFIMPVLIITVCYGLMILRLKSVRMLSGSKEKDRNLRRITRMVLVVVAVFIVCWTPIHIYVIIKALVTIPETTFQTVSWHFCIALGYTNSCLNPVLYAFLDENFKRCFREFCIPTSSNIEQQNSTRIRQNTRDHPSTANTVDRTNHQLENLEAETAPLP

## Sc1nnc(-c2cccs2)n1C1CCCCC1
[1]
  IC50: > 100 µM (inactive)
[2]
  IC50: 4.59 µM (active)
Beta-lactamase [3]
  IC50: > 59.6 µM (inactive)
Beta-lactamase [4]
  IC50: > 59.6 µM (inactive)
Beta-lactamase [5]
  IC50: > 59.6 µM (inactive)

## Cc1ccc(S(=O)(=O)NCc2ccc(C(=O)NCCN(Cc3ccc(Br)cc3)C(C)C)cc2)cc1
Mu-type opioid receptor
  IC50: > 32 µM (inactive)
[6]
  IC50: > 32 µM (inactive)

## CCC(/C=C1\Oc2ccc(OC)cc2N1C)=C\c1sc2ccccc2[n+]1CCCS(=O)(=O)[O-]
Troponin, cardiac muscle
  EC50: 0.853 µM (active)

## Cc1cc(-c2nnc(S)n2/N=C/c2ccc(C)s2)[nH]n1
[1]
  IC50: > 100 µM (inactive)
[2]
  IC50: 2.28 µM (active)

## C/C(=N\Nc1cc(C)nc(-c2ccccc2O)n1)c1ccccc1O
Streptococcus
  EC50: > 150 µM (not active)
[7]
  IC50: 6.71 µM (active)
[8]
  EC50: 4.57 µM (active)
Streptokinase A
  EC50: 14 µM (active)
